We go through five molecules from publication PMC6815954, “Rational design of caspase-responsive smart molecular probe for positron emission tomography imaging of drug-induced apoptosis” (Theranostics, 2019).

Experiment [1] has as its system tumor. The following applies: cited from earlier work. From the text: Recently, a potential PET imaging agent [^18F]ICMT-11 for monitoring the tumor cell death has been approved for clinical trials, where only a modest increase of 65% uptake can be observed in the treated tumor in comparison with the vehicle control tumor [36].
For experiment [2], the system named is HeLa cells. Kind of experiment: Cellular uptake assay of [^18F]1. Format: cell-based, human. On the procedure:
green fluorescence) for 6 h. The active caspase-3 was stained with anti-caspase-3 primary antibody and a Cy3-labeled secondary antibody (red fluorescence). The cell nuclei were stained with DAPI (blue fluorescence). The images of 1-FITC and active caspase-3 were merged in the last column.
HeLa cells were seeded into a 6-well plate and incubated for 24 h at 37 °C. The cells were cultured in the presence of DOX (2 µM) at 37 °C for 0, 2, 4, 6, 12, and 24 h, respectively. The probe [ 18F]1 (1.0 µCi, 0.037 MBq) was added to each well and incubated for additional 4 h at 37 °C. For inhibition assay, the caspase inhibitor Z-VAD-FMK (50 µM) was added to the DOX-treated cells for 48 h before the addition of [ 18F]1. To study the influence of cold compound 1 on cellular uptake of [ 18F]1 in DOX-treated or untreated cells, HeLa cells were incubated with the cold compound 1 (10 µM) and [ 18F]1 for 4 h at 37 °C.The cells were harvested withcentrifugal separationat 4,000 rpm for 5 min after washing twice with PBS. Then Tryp-LE TM Express (1 mL) was added and the cells were kept for 1-2 min to allow detaching. The cell/Tryp-LE solution was counted by a γ counter and the activity was normalized to the protein concentration (determined by comparison with BSA standard in an absorption assay from Pierce) in each vial.
Figure S23. […]

The test system of experiment [3] is HeLa xenograft tumor. The following applies: for tracer uptake ratio in DOX-treated versus untreated tumors: only [^18F]1.
Description: BALB/c nude mice (18-20 g, 4-6 weeks old) were used for animal experiments. Mice were housed with free access to food and water, and allowed ample time to acclimatize before the experiments. The tumor models were established by subcutaneous injection of human cervical cancer cells HeLa (1~2×10^6) suspended in PBS (100 µL) in the right shoulder or the posterior limb of the nude mouse. The tumors were allowed to grow for around 3-4 weeks to reach the size of 0.5-1.0 cm in diameter. Then, a subset of mice were treated with intratumoral or intravenous injection of DOX (0.2 mg, in 20 µL). Three days later, the animals were used for PET imaging and then the tumors were removed for the analysis of caspase-3 activity. All procedures were approved by the Animal Care and Ethics Committee of Jiangsu Institute of Nuclear Medicine.
PET scanning was carried out using an Inveon Dedicated microPET scanner (Siemens). In all experiments, the mice were anesthetized with isoflurane (2% isoflurane in oxygen at a flow rate of 2 L/min). One group of HeLa-bearing mice were scanned at baseline (without DOX treatment) as a control. For the experimental groups, microPET imaging was performed for one group of mice three days after a single intratumoral injection of DOX (0.2 mg) and the other group was performed after intravenous injection of DOX (0.2 mg) every 4 days for a total of three administrations. The probe [^18F]1 (~100 μCi, in 100 μL physiological saline) was administrated by intravenous injection via the tail vein. For the co-injection group, the mice were administrated by intravenous injection of the probe [^18F]1 with the precursor 1 (20 µmol/kg) via the tail vein. PET images were acquired in a list mode date for 60 min. The PET data were binned into 12 frames and each frame was reconstructed with the OSEM3D/MAP algorithm using microPET Manager (version 6869, Siemens). The reconstructed pixel size was 0.78 × 0.78 × 0.80 mm on a 128 × 128 × 159 image matrix. All PET images were corrected for decay but not for attenuation. Each image was analyzed using ASIPro software (Siemens). […]
The subject of experiment [4] is tumor. Further details: method as in PMID 25972517. The following applies: cited from earlier work.
In experiment [5] the test system is intact caspase-3 (35 kDa). Kind of experiment: Western blotting of DOX-treated HeLa cells, intact caspase-3. The following applies: 24 h. The format is cell-based, human. On the procedure: (§1) Western blotting analysis of caspase-3 activity in DOX-treated HeLa cells HeLa cells were seeded into 6-well plates at the density of 5 ×10^5 cells/well, followed by treatment with various concentrations of DOX for 24 h. Cells were washed with ice-cold PBS and then lysed at 4 °C for 5 min with RIPA lysis buffer containing protease and phosphatase inhibitors (Halt Protease Inhibitor Cocktail, Thermo Fisher Scientific Inc.). Soluble lysates were harvested by centrifugation at 12,000 rpm for 10 min at 4 °C. The content of protein was […]
(§2) (1 picture or pasted object on this page, not shown here) […]
(§3) measured using BCA protein assay kit and 40 μg of protein was separated with a 12% […]
(§4) SDS-PAGE gel. After blotting to PVDF membrane, the membranes were blocked with 5% […]
(§5) skimmed milk in tris-buffered saline (TBS, pH 7.4) for 60 min at room temperature and […]
(§6) incubated overnight at 4 °C in buffer (TBS with 0.1% Tween-20 and 5% skimmed milk) […]
(§7) containing different antibodies. Detection of primary antibodies was performed with […]
(§8) HRP-conjugated secondary antibody. Immunoreactive bands were visualized with Western […]
(§9) blotting luminol reagent. Densitometric analysis was performed using Image J software. […]
(§10) The DOX-treated group was cultured in the presence of DOX (2 µM) […]
(§11) for 6 h at 37 °C, then the medium was changed and the cells were cultured for another 24 h at […]
(§12) 37 °C. After incubated with 1-FITC (2 µM) for 6 h at 37 °C, the cells were washed with PBS, […]
(§13) fixed with 3.7% formaldehyde in PBS and permeabilized with 0.1% Triton X-100 in PBS for […]
(§14) 30 min at room temperature. Cells were blocked with 5% BSA in PBS for 30 min, and then […]
(§15) washed with PBS. Afterwards, cells were incubated with anti-caspase-3 antibody (caspase-3 […]
(§16) rabbit monoclonal antibody, Beyotime) overnight at 4 °C, washed with PBS, and incubated […]
(§17) with Cy3-labeled goat anti-rabbit IgG (Beyotime) for 1 h. Cells were washed with PBS […]
(§18) andstained with DAPI (5 µg/mL) for 2 min, and thenwashed twice with PBS. Finally, the cells […]
(§19) were viewed with the Olympus Xcellence. […]

Experiment [6] concerns active caspase-3 (19/17 kDa). Kind of experiment: Western blotting of DOX-treated HeLa cells, active caspase-3. The format is cell-based, human. The following applies: 24 h. On the procedure:
as §1, §2, §3, §4, §5, §6, §7, §8, §9, §10, §11, §12, §13, §14, §15, §16, §17, §18, §19
In general terms: In western blotting, separated proteins are transferred to a membrane and probed.

In experiment [7] the test system is activated caspase-3 (19/17 kDa). Nature of the experiment: Western blotting of tumor and muscle lysates. The format is in vivo, BALB/c nude mice. The following applies: DOX intratumoral; normalized to β-actin; n = 3. On the procedure: At the end of microPET imaging, DOX-treated or untreated mice were killed. Tumor and muscle tissues (~100 mg) were homogenized by an electronic homogenate machine in RIPA lysis buffer (1 mL) containing protease and phosphatase inhibitors (Halt Protease Inhibitor Cocktail, Thermo Fisher Scientific Inc.). Soluble lysates were harvested by centrifugation at 12,000 rpm for 10 min at 4 °C. Protein content was measured using BCA protein assay kit and 40 μg of protein was separated with a 12% SDS-PAGE gel. After blotting to PVDF membrane, the membranes were blocked with 5% skimmed milk in tris-buffered saline (TBS, pH 7.4) for 60 min at room temperature and incubated overnight at 4 °C in buffer (TBS with 0.1% Tween-20 and 5% skimmed milk) containing different antibodies. Detection of primary antibody was performed with HRP-conjugated secondary antibody. Immunoreactive bands were visualized with Western blotting luminol reagent. Densitometric analysis was performed using Image J software.

Like-named read-outs stand apart in the source and are kept apart here.

On to `O=C1C(=O)N(Cc2cn(CC[18F])nn2)c2ccc(S(=O)(=O)N3CCCC3COc3ccc(F)cc3F)cc21` (stereo not shown) [[^18F]ICMT-11], for which the “increase of uptake in treated tumor versus vehicle control tumor” value in experiment [1] is 65%.
“[^18F]DEVD-Cys(StBu)-PPG(CBT)-AmBF3 [[^18F]1]”: the “uptake with versus without addition of cold compound 1” value in experiment [2] (DOX-untreated HeLa, cold 1 10 µM, 4 h, 37 °C) is recorded as “almost identical”. For the same molecule, in experiment [2] (HeLa, DOX 24 h, Z-VAD-FMK 50 µM for 48 h before [^18F]1), the “retained [^18F] activity in DOX-treated cells with caspase inhibitor, versus untreated tumor cells” value is on record as “almost identical”. Besides, the “tumor-to-muscle uptake ratio in treated apoptotic tumor model relative to untreated group” value in experiment [3] (20 min post injection) was “more than two folds”. In addition, the “tracer uptake ratio in DOX-treated versus untreated tumors” value stood at 4.23 in experiment [3] (DOX intratumoral, 15-20 min post injection) and 3.01 in experiment [3] (DOX intravenous).
Take `CC(CCCCC[18F])(C(=O)O)C(=O)O` [^18F-ML-10]: in experiment [4], the “differential response to treatment” value is “little differential response” and the “response to cell death” value is “no differentiated response”.
For `COc1cccc2c1C(=O)c1c(O)c3c(c(O)c1C2=O)C[C@@](O)(C(=O)CO)C[C@@H]3O[C@H]1C[C@H](N)[C@H](O)[C@H](C)O1` [DOX, doxorubicin], the “decrease of intact caspase-3 expression versus DOX-untreated cells” value in experiment [5] (0.5 µM DOX) came to 1.3 folds; in experiment [5] (1 µM DOX) it was 1.5 folds; in experiment [5] (2 µM DOX), 2.1 folds; in experiment [5] (4 µM DOX), 2.2 folds. Further, the “increase of active caspase-3 expression versus DOX-untreated cells” value in experiment [6] (0.5 µM DOX) was 3.3 folds; in experiment [6] (1 µM DOX), 9.3 folds; in experiment [6] (2 µM DOX) it was 13.4 folds; in experiment [6] (4 µM DOX) it was 15.5 folds. Moreover, the “expression level of activated caspase-3 in DOX-treated tumor versus muscle” value in experiment [7] came to 7.5 folds. For the same molecule, in experiment [7], the “expression level of activated caspase-3 in DOX-treated tumor versus untreated tumor” value is listed as 4.5 folds.
Take `OC[C@H]1OC(O)[C@H]([18F])[C@@H](O)[C@@H]1O` (stereo partly shown) [^18F-FDG]: the “response to cell death” value in experiment [4] is “no differentiated response”.
